Earlier results in patent US20260048046A1, “METHOD FOR IMPROVING GROWTH PERFORMANCE IN FEEDLOT CATTLE” (Elanco US Inc., priority 2022, published 2026).
Like-named read-outs stand apart in the source and are kept apart here.

Tested on: cattle
Settings: zilpaterol 8.3 mg/kg diet DM, Holland et al. (2010), cited from earlier work

SMILES: CC(C)NC1CCn2c(=O)[nH]c3cccc(c32)C1O (centres unmarked) [zilpaterol]
- Difference in HCW between zilpaterol fed and non-treated cattle (3 d removal prior to harvest): 14 kg
- Difference in HCW between zilpaterol fed and non-treated cattle (10 d removal prior to harvest): 17 kg
- Difference in HCW between zilpaterol fed and non-treated cattle (17 d removal prior to harvest): 5 kg
- Difference in HCW between zilpaterol fed and non-treated cattle (24 d removal prior to harvest): 6 kg
- Final and carcass-adjusted final BW, effect of feeding zilpaterol (P≥0.14): not affected
